Laboratory results as given in patent US20120309677A1, “METHODS FOR REGULATING BLOOD GLUCOSE LEVELS” (Monash University, priority 2010, published 2012).

What was measured:
[1] = target: hMC5R (Homo sapiens, UniProt P33032); conditions: cited from earlier work
[2] = tested on: cAMP; test: cAMP levels in muscles after α-MSH infusion (immunoassay); assay type: in vivo; conditions: control mice; 45 minutes of α-MSH infusion; FIG. 9A
Description: To measure cAMP concentrations and to determine p-AMPK protein expression in muscles, an experiment was conducted according to a similar design to that described in FIG. 5. Muscle tissues were obtained after 45 minutes of initiating α-MSH infusion and 25 minutes of administering glucose injection. cAMP concentration was determined with a direct immunoassay kit (BioVision Research Products, Mountain View, Calif., United States of America). The kit has a cAMP polyclonal antibody onto the plate. cAMP-HRP conjugates directly compete with cAMP from sample binding to the cAMP antibody on the plate. The HRP activity at 450 nm is inversely proportional to the cAMP concentration in samples. White bars: saline infusion, dark bars: α-MSH infusion

[3] = tested on: p-AMPK; test: p-AMPK levels in soleus muscles treated in vitro (Western blot); assay type: cell-based; conditions: lean mice; 1, 10 and 100 nM for 45 min in vitro; FIG. 8
Description: Soleus muscles were dissected from anaesthetised mice. Muscles were incubated with α-MSH (at 1, 10, and 100 nM) for 45 min. After that, muscles were immediately homogenised in cold RIPA lysis buffer. Homogenates were centrifugated and supernatant were collected to measure protein contents ([…]). 50 μg of each sample was loaded on a 10% Tris-Glycine pre-cast gel. A liver protein sample was run as a positive control. The gel was then transferred onto an Immobilon PVDF membrane for 2 h and after blocking for 1 h with 5% milk in TBST, was incubated o/n with anti-p-AMPK antibody (1:1000; Cell Signaling Technology, Inc, Danvers, Mass., United States of America), anti-total AMPK (1:1000, Cell Signaling Technology, Inc), or anti-GAPDH antibody (1:20000). To avoid interferences with total AMPK antibody, membranes were stripped before incubating with this antibody. Goat anti-mouse IgG horseradish peroxidase (1:50000, Santa Cruz Biotechnology, Inc, Santa Cruz, Calif., United States of America) was used as secondary antibody.

[4] = Glucose disposal during ipGTT with systemic α-MSH infusion; assay type: in vivo, mice; conditions: for glucose disposal during ipGTT: systemic infusion (external jugular vein) 1 μg/h
Description: Mice were instrumented with an arterial catheter (carotid artery) to monitor blood pressure (BP), heart rate (HR) and for sampling. At the same time, a venous catheter (jugular vein) was placed to infuse α-MSH (1 μg/h) for 3 h. Blood glucose was measured before and at 10 and 20 mins of α-MSH infusion. After that, mice received an ip glucose injection (GTT, 1 mg/g). Blood glucose levels were measured at 15, 30, 60 and 120 mins after glucose challenge. BP and […] were recorded during whole procedure. The results are shown in FIGS. 5A and 5B. **[…] vs saline infusion. In a further experiment, MC4R activity was blocked using agouti-related peptide (AgRP; 1.0 nmol, 1 μl) administered (by injection to the lateral ventricle) 1 hr before commencement of the α-MSH infusion.

[5] = tested on: Rat L6 skeletal muscle cells; test: Glucose uptake in differentiated L6 cells; assay type: cell-based; conditions: 100 nM α-MSH and/or 10 nM insulin; FIG. 10
Description: Rat L6 skeletal muscle cells were seeded in 12-well plates and differentiated in myotubes by replacing growth medium (DMEM+10% FBS) with DMEM+2% horse serum. Medium was changed every day for 1 week. Cells were preincubated for 20 min with no glucose medium+0.1% fatty acid-free BSA. 10 nM of insulin and/or 100 nM α-MSH was added to the corresponding wells. Glucose uptake was assessed for 15 min using 2-deoxy-D-[2,6-^3H]glucose (1 mmol/1, 0.5 μCi/ml) in the presence or absence of 10 nM insulin and 100 nM of α-MSH. Radioactivity was measured in cell lysates by liquid scintillation counting.

[6] = tested on: p-AMPK; test: p-AMPK protein expression in muscles after α-MSH infusion (Western blot); assay type: in vivo; conditions: control mice, FIG. 9B
Description: To measure cAMP concentrations and to determine p-AMPK protein expression in muscles, an experiment was conducted according to a similar design to that described in FIG. 5. Muscle tissues were obtained after 45 minutes of initiating α-MSH infusion and 25 minutes of administering glucose injection. cAMP concentration was determined with a direct immunoassay kit (BioVision Research Products, Mountain View, Calif., United States of America). The kit has a cAMP polyclonal antibody onto the plate. cAMP-HRP conjugates directly compete with cAMP from sample binding to the cAMP antibody on the plate. The HRP activity at 450 nm is inversely proportional to the cAMP concentration in samples. White bars: saline infusion, dark bars: α-MSH infusion p-AMPK and total AMPK were determined by Western blot. Results shown in FIG. 9B are expressed as a ratio P/Total AMPK. *P<0.05

[7] = Muscle temperature in sheep during α-MSH infusion; assay type: in vivo
Description: Four ovariectomised ewes were placed on a diet of temporal food restriction where food was made available between 11:00-16:00 h (as depicted by the grey box in FIGS. 4A and 4B). Animals were exposed to this feeding window for at least 2 weeks prior to experimentation. Then, one week before the onset of experiments, an indwelling cannulae was surgically inserted into the external jugular vein (experiment a) or femoral artery (experiment b). At the same time, a datalogger was implanted into the vastus lateralis muscle of the hindlimb and programmed to read temperature at 15 min intervals. Animals were treated with either α-MSH 100 μg/h (▾ triangles) for experiment a or 1 μg/h for experiment b or saline (800 μl/h, […]). Infusions were carried out between 10:00-19:00 h.

[8] = tested on: soleus muscles; test: Glucose uptake in isolated soleus muscles (2-deoxy-D-[3H]glucose); assay type: cell-based, mice; conditions: 100 nM, presence and absence of 10 nM insulin
Description: Mice were fasted overnight and soleus muscles were dissected from anaesthetised mice. Muscles were preincubated for 30 min with 1 ml of warmed (30° C.), pregassed (95% O2-5% CO2, pH 7.4), modified Krebs-Henseleit buffer supplemented with 2 mmol/l sodium pyruvate, 8 mmol/l mannitol, and 0.1% wt/vol BSA and were then incubated with or without 10 nM insulin, α-MSH (100 nM) or α-MSH plus insulin (100 nM+10 nM) for 20 min. Glucose uptake was assessed for 10 min using 2-deoxy-D-[2,6-^3H]glucose (1 mmol/1, 0.5 μCi/ml) in the presence or absence of 10 nM insulin. Radioactivity was measured in muscle lysates by liquid scintillation counting.

[9] = α-MSH levels after ip insulin injection; assay type: in vivo; conditions: POMC-Kir6.2 mutant mice and control littermates; human insulin 1.0 U/kg ip; FIG. 3B
Description: POMC-mutKIR6.2 mice is a mutant in which all POMC cells lack the capacity to sense glucose due to dysfunctional ATP/K+ channels. Mutants and wild-type littermates were fed a regular diet. Blood glucose and α-MSH samples were taken after ip injection of human insulin (1.0 U/kg). The results are shown in FIG. 3A. **P<0.01 vs baseline value in the respective group by repeated-measures ANOVA. # P<0.01 vs control littermate at the respective point by single measured.

[10] = tested on: adult monkey pituitaries; test: α-MSH release from halved pituitaries; assay type: cell-based; conditions: glucose 15 mM, insulin 200 nM, 45 min; FIG. 1A
Description: Adult monkey pituitaries (n=22) were halved and then treated separately with artificial cerebrospinal fluid (aCSF) equilibrated with 95% O2 and 5% CO2 and incubated at 37° C. After 1 hr equilibration period, halves were incubated for 45 min in aCSF (basal period) before being challenged with glucose (Glu): 15 mM, insulin (Ins): 200 nM or Glu+Ins (15 mM+200 nM) treatments for 45 min. […] This was confirmed by measurement of α-MSH in monkey pituitaries by radioimmunoassay after acidic extraction (FIG. 1B).

[11] = tested on: skeletal muscle cells; test: Glucose uptake in skeletal muscle cells with MC5R agonist; assay type: cell-based

hMC5R, sequence (P33032 whole entry, the tested form may be a part): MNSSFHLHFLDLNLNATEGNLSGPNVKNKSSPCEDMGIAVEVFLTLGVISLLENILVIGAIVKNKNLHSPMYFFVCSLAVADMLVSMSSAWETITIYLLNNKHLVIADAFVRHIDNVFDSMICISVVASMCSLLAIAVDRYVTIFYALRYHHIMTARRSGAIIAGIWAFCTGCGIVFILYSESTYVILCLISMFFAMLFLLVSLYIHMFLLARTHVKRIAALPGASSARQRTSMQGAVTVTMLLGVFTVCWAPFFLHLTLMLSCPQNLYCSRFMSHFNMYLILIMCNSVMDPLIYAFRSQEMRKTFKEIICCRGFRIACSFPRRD

Ac-Nle-c[Asp-Hyp-D-Nal(2′)-Arg-Trp-Lys]-NH2 [PG-911]
EC50 [1]: 0.031 nM

α-melanocyte stimulating hormone (SYSMEHFRWGKPV) [α-MSH, native peptide; native agonist for the type 1, 3, 4 and 5 melanocortin receptors]
cAMP levels in muscles [2]: increase of cAMP levels | p-AMPK muscle levels [3]: dose-dependent increase of p-AMPK muscle levels | response to α-MSH infusion ([4]; MC4R KO mice, data not shown): intact response | glucose disposal during ipGTT ([4]; control mice, FIG. 5A): increases glucose disposal | glucose disposal during ipGTT ([4]; obese (DIO) mice, FIG. 5B): does not increase glucose disposal | glucose uptake by rat L6 cells [5]: increases in glucose uptake | p-AMPK protein expression in muscles (ratio P/Total AMPK) [6]: increased | muscle temperature ([7]; direct infusion into femoral artery, 1 μg/h, FIG. 4B): causes an increase in muscle temperature | post-prandial muscle temperature ([7]; systemic infusion (external jugular vein), 100 μg/h, FIG. 4A): increases post-prandial muscle temperature | glucose uptake in soleus muscles ([8]; control mice, FIG. 6A): increases glucose uptake | glucose uptake in soleus muscles ([8]; obese mice, FIG. 6B): does not increase glucose uptake

insulin
glucose uptake by rat L6 cells [5]: increases in glucose uptake | α-MSH levels in response to insulin [9]: do not change | α-MSH release from pituitaries [10]: stimulate α-MSH release

agouti-related peptide (SSRRCVRLHESCLGQQVPCCDPCATCYCRFFNAFCYCRKLGTAMNPCSRT; UniProt O00253 83-132, looked up) [AgRP, reference compound]
effect on the response (increased glucose disposal) to α-MSH infusion ([4]; AgRP 1.0 nmol to lateral ventricle 1 hr before α-MSH infusion, to block MC4R, FIG. 5C): does not prevent the response

Ac-Nle-c[Asp-Pro-D-Nal(2′)-Arg-Trp-Lys]-NH2 (XDPXRWK; Ac, amide, cyclic lactam, Nle, D-Nal(2'); PG-901)
increases of glucose uptake in skeletal muscle cells ([11]; 1 nM and 5 nM amounts, FIG. 5D): 30-40% | effect of an MC3R and MC4R antagonist on the increase of glucose uptake ([11]; 1 nM and 5 nM amounts, data not shown): unaffected by the presence of an MC3R and MC4R antagonist | glucose uptake in muscle cells ([11]; FIG. 5D): increases glucose uptake in muscle cells
